{"source": "paper PMC8688955", "about": "(Frontiers in Pharmacology, 2021)", "key": {"CI-AMPARs [1]": {"molecular_target": "T1, CI-AMPARs (Rattus norvegicus, UniProt P19491, Q607R)", "T1 construct": "activity against native calcium-permeable AMPA receptors (CP-AMPARs) and calcium-impermeable AMPA receptors (CI-AMPARs); endogenous in cells; host or cells: acutely isolated pyramidal neurons from the CA1 area of Wistar rat hippocampal slices", "T1 sequence (P19491 22-883 Q607R)": "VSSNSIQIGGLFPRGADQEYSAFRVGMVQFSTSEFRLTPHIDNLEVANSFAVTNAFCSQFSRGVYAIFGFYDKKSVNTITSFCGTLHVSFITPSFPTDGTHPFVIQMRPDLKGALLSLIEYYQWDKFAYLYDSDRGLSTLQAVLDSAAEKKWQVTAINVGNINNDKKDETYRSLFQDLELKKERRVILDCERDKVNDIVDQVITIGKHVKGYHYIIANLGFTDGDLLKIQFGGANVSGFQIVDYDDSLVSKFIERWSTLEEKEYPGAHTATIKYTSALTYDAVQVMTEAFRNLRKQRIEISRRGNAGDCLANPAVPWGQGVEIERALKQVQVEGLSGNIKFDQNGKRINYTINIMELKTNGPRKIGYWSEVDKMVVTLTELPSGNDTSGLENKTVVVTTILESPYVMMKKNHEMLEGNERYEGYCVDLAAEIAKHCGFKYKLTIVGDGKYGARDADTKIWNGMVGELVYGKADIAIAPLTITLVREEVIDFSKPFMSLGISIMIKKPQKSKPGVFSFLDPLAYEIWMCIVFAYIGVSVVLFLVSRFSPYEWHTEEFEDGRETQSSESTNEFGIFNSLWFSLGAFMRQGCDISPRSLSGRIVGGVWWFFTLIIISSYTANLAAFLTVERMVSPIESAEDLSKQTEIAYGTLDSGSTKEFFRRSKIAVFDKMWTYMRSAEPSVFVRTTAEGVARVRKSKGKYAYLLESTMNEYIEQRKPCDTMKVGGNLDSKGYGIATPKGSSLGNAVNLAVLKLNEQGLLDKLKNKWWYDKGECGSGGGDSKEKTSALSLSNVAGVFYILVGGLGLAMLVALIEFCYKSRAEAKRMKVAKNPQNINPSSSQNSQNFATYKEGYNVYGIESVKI", "assay": "Whole-cell patch-clamp of kainate-induced currents in isolated hippocampal CA1 pyramidal neurons", "assay_type": "cell-based, Wistar rat", "settings": "for inhibition at 300 µM: 300 µM compound, read-out: percentage of inhibition at 300-µM concentration; for CI-AMPARs % inhibition at 100 µM: 100 µM compound; for CI-AMPARs % inhibition at 100 µM / inhibition at 100 µM: currents induced by 100 µM kainate, mean ± SD, N = 5; for inhibition at 100 µM: read-out: CI-AMPARs % inhibition at 100 µM, 100 µM compound; for IC50: kainate-induced currents; for Difference in the % of inhibition in coapplication and preapplication protocols: coapplication with kainate vs preapplication without kainate", "experimental": "All experimental procedures were approved by the Animal Care and Use Committee of the I.M. Sechenov Institute of Evolutionary Physiology and Biochemistry of the Russian Academy of Sciences. Wistar rats (13–19 days old) were anesthetized with sevoflurane and then decapitated. Maximum effort was made to minimize the number of animals used. Brains were removed quickly and cooled to 2–4°C in an ice bath. […] The antagonism of CI-AMPARs was studied on pyramidal neurons from the CA1 area of the hippocampus.\nSeries resistance of about 20 MΩ was compensated by 70–80% and monitored during experiments. Currents were recorded using an EPC-8 amplifier (HEKA Electronics, Lambrecht, Germany), filtered at 5 kHz, sampled, and stored on a personal computer. Drugs were applied using the RSC-200 perfusion system (BioLogic Science Instruments, Claix, France) under computer control. The solution exchange time in the whole-cell mode was 50–60 ms. […] The pipette solution contained (in mM) CsF 100, CsCl 40, NaCl 5, CaCl2 0.5, EGTA 5, and HEPES 10 (pH was adjusted to 7.2 with CsOH). Experiments were performed at room temperature (22–24°C). […] Lamotrigine, topiramate, levetiracetam, felbamate, carbamazepine, tiagabin, vigabatrin, zonisamide, and gabapentin were purchased from Tocris Bioscience (Bristol, United Kingdom). Perampanel was from MedChemExpress (Stockholm, Sweden). Kinetics of transient processes of more than 20-ms duration was approximated by exponential functions. Experiments were performed at −80 mV holding voltage. All experimental data are presented as mean ± SD estimated from at least four experiments. Significance of the effects was tested with paired t test. Differences were considered significant at p < 0.05. 3D structures of compounds were calculated by the ZMM software (zmmsoft.ca)."}, "CP-AMPARs": {"tested_on": "CP-AMPARs", "assay": "Whole-cell patch-clamp of kainate-induced currents in isolated striatal giant interneurons", "assay_type": "cell-based, Wistar rat", "settings": "for CP-AMPARs % inhibition at 100 µM: 100 µM compound, currents induced by 100 µM kainate, mean ± SD, N = 5; for % block: IEM-1925, […], representative recording, Figure 3E; for % inhibition: […] IEM-1925; for IC50: read-out: IC50 CP-AMPARs, kainate-induced currents", "experimental": "All experimental procedures were approved by the Animal Care and Use Committee of the I.M. Sechenov Institute of Evolutionary Physiology and Biochemistry of the Russian Academy of Sciences. Wistar rats (13–19 days old) were anesthetized with sevoflurane and then decapitated. Maximum effort was made to minimize the number of animals used. Brains were removed quickly and cooled to 2–4°C in an ice bath. […] Single neurons were freed from slices by vibrodissociation ([Vorobjev, 1991]). The antagonism of CP-AMPARs was studied on striatal giant interneurons ([Bernard et al., 1997]; [Gotz et al., 1997]), which were identified by their shape and size. […] The antagonism of CI-AMPARs was studied on pyramidal neurons from the CA1 area of the hippocampus.\nSeries resistance of about 20 MΩ was compensated by 70–80% and monitored during experiments. Currents were recorded using an EPC-8 amplifier (HEKA Electronics, Lambrecht, Germany), filtered at 5 kHz, sampled, and stored on a personal computer. Drugs were applied using the RSC-200 perfusion system (BioLogic Science Instruments, Claix, France) under computer control. The solution exchange time in the whole-cell mode was 50–60 ms. The extracellular solution contained (in mM) NaCl 143, KCl 5, MgCl2 2.0, CaCl2 2.5, D-glucose 18, and HEPES 10 (pH was adjusted to 7.3 with HCl). The pipette solution contained (in mM) CsF 100, CsCl 40, NaCl 5, CaCl2 0.5, EGTA 5, and HEPES 10 (pH was adjusted to 7.2 with CsOH). Experiments were performed at room temperature (22–24°C). […] Lamotrigine, topiramate, levetiracetam, felbamate, carbamazepine, tiagabin, vigabatrin, zonisamide, and gabapentin were purchased from Tocris Bioscience (Bristol, United Kingdom). Perampanel was from MedChemExpress (Stockholm, Sweden). Kinetics of transient processes of more than 20-ms duration was approximated by exponential functions. Experiments were performed at −80 mV holding voltage. All experimental data are presented as mean ± SD estimated from at least four experiments. Significance of the effects was tested with paired t test. Differences were considered significant at p < 0.05. 3D structures of compounds were calculated by the ZMM software (zmmsoft.ca)."}, "hGluA1-4 receptors": {"tested_on": "hGluA1-4 receptors", "design": "method as in Fukushima et al. (2020)", "settings": "ref Fukushima et al. (2020); cited from earlier work"}, "CI-AMPARs [2]": {"molecular_target": "T1, CI-AMPARs", "design": "method as in Barygin, 2016", "settings": "ref Barygin, 2016, cited from earlier work"}, "[3]": {"settings": "double-pulse protocol, 30-s pause"}}, "note": "Read-outs that look alike come from different tables or passages of the source."}
{"smiles": "O=C1CNC(=O)N1", "note": "[hydantoin]", "values": [{"measurement": "inhibition at 300 µM", "setting": "CI-AMPARs [1]", "result": "≤ 20", "unit": "%"}]}
{"smiles": "NCC1(CC(=O)O)CCCCC1", "note": "[Gabapentin]", "values": [{"measurement": "CI-AMPARs % inhibition at 100 µM", "setting": "CI-AMPARs [1]; −80 mV", "result": "20 ± 6", "unit": "%"}, {"measurement": "inhibition at 100 µM", "setting": "CI-AMPARs [1]; −80 mV", "result": "≤ 20", "unit": "%"}, {"measurement": "CP-AMPARs % inhibition at 100 µM", "setting": "CP-AMPARs; −80 mV", "result": "12 ± 5", "unit": "%"}, {"measurement": "CP-AMPARs % inhibition at 100 µM", "setting": "CP-AMPARs; −80 mV, listed as gabapentin", "result": "≤ 20", "unit": "%"}, {"measurement": "activity against hGluA1-4 receptors", "setting": "hGluA1-4 receptors", "result": "did not find significant activity"}]}
{"smiles": "CCC1(c2ccccc2)C(=O)NCNC1=O", "note": "[primidone]", "values": [{"measurement": "inhibition at 300 µM", "setting": "CI-AMPARs [1]", "result": "≤ 20", "unit": "%"}]}
{"smiles": "CCC1(c2ccccc2)C(=O)NC(=O)NC1=O", "note": "[phenobarbital]", "values": [{"measurement": "activity against hGluA1-4 receptors", "setting": "hGluA1-4 receptors", "result": "did not find significant activity"}]}
{"smiles": "COC[C@@H](NC(C)=O)C(=O)NCc1ccccc1", "note": "[lacosamide]", "values": [{"measurement": "activity against hGluA1-4 receptors", "setting": "hGluA1-4 receptors", "result": "did not find significant activity"}]}
{"smiles": "C=CC(N)CCC(=O)O", "note": "(stereo not shown) [Vigabatrin]", "values": [{"measurement": "CI-AMPARs % inhibition at 100 µM", "setting": "CI-AMPARs [1]; −80 mV", "result": "8 ± 1", "unit": "%"}, {"measurement": "CI-AMPARs % inhibition at 100 µM", "setting": "CI-AMPARs [1]; −80 mV, listed as vigabatrin", "result": "≤ 20", "unit": "%"}, {"measurement": "CP-AMPARs % inhibition at 100 µM", "setting": "CP-AMPARs; −80 mV", "result": "10 ± 3", "unit": "%"}, {"measurement": "CP-AMPARs % inhibition at 100 µM", "setting": "CP-AMPARs; −80 mV, listed as vigabatrin", "result": "≤ 20", "unit": "%"}]}
{"smiles": "NCCCCCNC1(c2ccccc2)CCCCC1", "note": "[IEM-1925]", "values": [{"measurement": "More active against CI-AMPARs", "setting": "CI-AMPARs [1]", "result": "dramatically more active against CP-AMPARs and No"}, {"measurement": "IC50", "setting": "CI-AMPARs [1]; Hill equation, −80 mV", "result": "180 ± 30", "unit": "µM"}, {"measurement": "slow component of the response to testing kainate application in the trapping protocol", "setting": "CP-AMPARs; 6 µM IEM-1925, double-pulse protocol, n = 4", "result": "1,800 ± 400 ms"}, {"measurement": "Activity drop at high (500 µM) kainate concentration", "setting": "CP-AMPARs; 50 vs 500 µM kainate, striatal CP-AMPARs", "result": "No"}, {"measurement": "% block", "setting": "CP-AMPARs; Ka 50 μM", "result": 49, "unit": "%"}, {"measurement": "% block", "setting": "CP-AMPARs; Ka 500 μM", "result": 57, "unit": "%"}, {"measurement": "% inhibition", "setting": "CP-AMPARs; 50 µM kainate", "result": "48 ± 3", "unit": "%"}, {"measurement": "% inhibition", "setting": "CP-AMPARs; 500 µM kainate", "result": "55 ± 5", "unit": "%"}, {"measurement": "Difference in the % of inhibition in coapplication and preapplication protocols", "setting": "CP-AMPARs; coapplication with kainate vs preapplication without kainate, striatal CP-AMPARs", "result": "inhibited only open channels and Yes"}, {"measurement": "Trap in kainate 100 µM", "setting": "CP-AMPARs; double-pulse protocol, 30-s pause, striatal giant interneuron", "result": "Yes"}, {"measurement": "Trap in kainate 500 µM", "setting": "CP-AMPARs; double-pulse protocol, striatal giant interneuron", "result": "Yes"}, {"measurement": "IC50", "setting": "CP-AMPARs; Hill equation, −80 mV", "result": "1.3 ± 0.4", "unit": "µM"}]}
{"smiles": "NC(=O)N1c2ccccc2C=Cc2ccccc21", "note": "[Carbamazepine]", "values": [{"measurement": "CI-AMPARs % inhibition at 100 µM", "setting": "CI-AMPARs [1]; −80 mV", "result": "11 ± 3", "unit": "%"}, {"measurement": "inhibition at 100 µM", "setting": "CI-AMPARs [1]; −80 mV", "result": "≤ 20", "unit": "%"}, {"measurement": "CP-AMPARs % inhibition at 100 µM", "setting": "CP-AMPARs; −80 mV", "result": "15 ± 4", "unit": "%"}, {"measurement": "CP-AMPARs % inhibition at 100 µM", "setting": "CP-AMPARs; −80 mV, listed as carbamazepine", "result": "≤ 20", "unit": "%"}, {"measurement": "activity against hGluA1-4 receptors", "setting": "hGluA1-4 receptors", "result": "did not find significant activity"}]}
{"smiles": "N#Cc1ccccc1-c1cc(-c2ccccn2)cn(-c2ccccc2)c1=O", "note": "[Perampanel]", "values": [{"measurement": "Activity drop at high (500 µM) kainate concentration", "setting": "CI-AMPARs [1]", "result": "more active in the case of lower kainate concentration and Yes"}, {"measurement": "More active against CI-AMPARs", "setting": "CI-AMPARs [1]", "result": "equipotently inhibited both receptor subtypes and No"}, {"measurement": "time constant τ of the response to testing kainate application in the trapping protocol", "setting": "CI-AMPARs [1]; 500 nM perampanel, double-pulse protocol, n = 4", "result": "41 ± 12", "unit": "ms"}, {"measurement": "decrease in the % of inhibition with the increase in agonist concentration", "setting": "CI-AMPARs [1]; 50 vs 500 µM kainate", "result": "30–40%"}, {"measurement": "Difference in the % of inhibition in coapplication and preapplication protocols", "setting": "CI-AMPARs [1]", "result": "No"}, {"measurement": "Difference in the % of inhibition in coapplication and preapplication protocols", "setting": "CI-AMPARs [1]; listed as perampanel", "result": "equally effective in preapplication and coapplication protocols"}, {"measurement": "Trap in kainate 100 µM", "setting": "CI-AMPARs [1]; [3]", "result": "No"}, {"measurement": "Trap in kainate 500 µM", "setting": "CI-AMPARs [1]; [3]", "result": "No"}, {"measurement": "IC50", "setting": "CI-AMPARs [1]", "result": "0.063 ± 0.008", "unit": "µM"}, {"measurement": "IC50", "setting": "CP-AMPARs", "result": "0.06 ± 0.006", "unit": "µM"}, {"measurement": "reduction in activity by cyclothiazide", "setting": "CI-AMPARs [2]; isolated CA1 pyramidal neurons", "result": "ca. 20 fold"}, {"measurement": "Activity drop in the presence of cyclothiazide", "setting": "CI-AMPARs [2]", "result": "Yes"}, {"measurement": "Activity drop in the presence of cyclothiazide", "setting": "CI-AMPARs [2]; listed as perampanel", "result": "less active in the presence of cyclothiazide"}]}
